For one compound, IC50 results are on record in patent publication US20160296529A1, “AMINOTRIAZOLOPYRIDINE FOR USE IN THE TREATMENT OF INFLAMMATION, AND PHARMACEUTICAL COMPOSITIONS THEREOF” (priority 2012, published 2016).

The target in experiment [1] is T1, Recombinant human JAK2 catalytic domain (Homo sapiens, UniProt O60674).
T1 construct: amino acids 808-1132; catalog number PV4210; GST; purchased Invitrogen PV4210
The experiment in a line: JAK2 Ulight-JAK1 peptide assay. Type of experiment: biochemical. On the procedure: 0.0125 mU of JAK2 was incubated with 25 nM Ulight-JAK1(tyr1023) peptide (Perkin Elmer catalog number TRF0121) in kinase reaction buffer (25 mM HEPES pH7.0, 0.01% Triton X-100, 7.5 mM MgCl2, 2 mM DTT, 7.5 μM ATP) with or without 4 μL containing test compound or vehicle (DMSO, 1% final concentration), in a total volume of 20 μL, in a white 384 Opti plate (Perkin Elmer, catalog number 6007290). After 60 min at room temperature, reactions were stopped by adding 20 μL/well of detection mixture (1× detection buffer (Perkin Elmer, catalog number CR97-100C), 0.5 nM Europium-anti-phosphotyrosine (PT66) (Perkin Elmer, catalog number AD0068), 10 mM EDTA). Readout was performed using the Envision with excitation at 320 nm and measuring emission at 615 nm (Perkin Elmer). Kinase activity was calculated by subtracting relative fluorescence units (RFU) obtained in the presence of a positive control inhibitor (10 μM staurosporine) from RFU obtained in the presence of vehicle. The ability of a test compound to inhibit this activity was determined as:
Percentage inhibition−((RFU determined for sample with test compound present−RFU determined for sample with positive control inhibitor) divided by (RFU determined in the presence of vehicle−RFU determined for sample with positive control inhibitor))*100. […]

Experiment [2] concerns GM-CSF-induced STAT5 phosphorylation (JAK2-dependent pathway). In words: Human whole blood assay (hWBA), GM-CSF stimulation, phospho-STAT5 on CD33+ cells. The following applies: 7 different donors. Format: cell-based. The protocol:
A flow cytometry analysis was performed to establish JAK1 over JAK2 compound selectivity ex vivo using human whole blood. Therefore, blood is taken from human volunteers who gave informed consent. Blood is then equilibrated for 30 min at 37° C. under gentle rocking, then aliquoted in Eppendorf tubes. Compound is added at different concentrations and incubated at 37° C. for 30 min under gentle rocking and subsequently stimulated for 20 min at 37° C. under gentle rocking with interleukin 6 (IL-6) for JAK1-dependent pathway stimulation or GM-CSF for JAK2-dependent pathway stimulation. Phospho-STAT1 and phospho-STAT5 are then evaluated using FACS analysis. […]
Cells were then washed once with 1×PBS and analyzed on a FACSCanto II flow cytometer (BD Biosciences).
50,000 total events were counted and Phospho-STAT5 positive cells were measured after gating on CD33^+ cells. Data were analyzed using the FACSDiva software and correspond to the percentage of inhibition of GM-CSF stimulation calculated from the percentage of positive cells for phosphor-STAT5 on CD33^+ cells.
A flow cytometry analysis was performed to establish JAK1 over JAK2 compound selectivity ex vivo using human whole blood. […] Phospho-STAT1 (for IL-6- and IFNα-stimulated cells) and phospho-STAT5 (for IL-2- and GM-CSF-stimulated cells) levels are then evaluated using FACS analysis. […]

Each structure is given as a SMILES string. Several values for one entry are separate records, joined by “and”; a condition that tells them apart may be missing. Equal values may be shown once. Read-outs that look alike come from different tables or passages of the source.

T1 sequence (O60674 808-1132): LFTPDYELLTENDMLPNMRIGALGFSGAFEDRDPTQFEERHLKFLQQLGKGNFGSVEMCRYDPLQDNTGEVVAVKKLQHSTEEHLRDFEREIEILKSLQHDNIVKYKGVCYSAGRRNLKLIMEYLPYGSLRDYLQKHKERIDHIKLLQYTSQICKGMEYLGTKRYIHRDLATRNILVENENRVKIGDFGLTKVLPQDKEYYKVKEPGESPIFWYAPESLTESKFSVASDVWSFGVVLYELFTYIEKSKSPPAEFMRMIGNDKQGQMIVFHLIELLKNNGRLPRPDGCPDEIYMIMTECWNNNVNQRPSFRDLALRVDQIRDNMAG

Turning to `Nc1nc2cccc(-c3ccc(CN4CCS(=O)(=O)CC4)cc3)n2n1` [Formula I, 5-[4-(1,1-Dioxothiomorpholin-4-ylmethyl)-phenyl]-[1,2,4]triazolo[1,5-a]pyridin-2-ylamine], the concentration for half-maximal inhibition (IC50) in experiment [1] (average, read-out: IC50 (average)) is 397 nM; in experiment [1] (individual determinations, read-out: IC50), 1030 nM and 517 nM and 351 nM and 138 nM and 367 nM and 310 nM and 729 nM and 152 nM and 203 nM and 168 nM; in experiment [2] it was more than 100000 nM.

As a reminder, the IC50 is the concentration that inhibits the measured activity by half.
